US20060249167A1, “Flavor ingredients for cooling preparations” (priority 2003, published 2006)

Key:
[1] = Organoleptic (odor and flavor) description of the compound and its isomers; details: in vivo

CC(C)[C@@H]1CC[C@@H](C)C[C@]12OC(=O)[C@H](C)O2 [Compound of example 1c, (3S, 5S, 6S, 9R)-6-isopropyl-3,9-dimethyl-1,4-dioxaspiro[4.5]decan-2-one]
flavor [1]: more of the cooling type with a minty connotation
melting point: 33 to 34 °C

CC(C)[C@@H]1CC[C@@H](C)CC12OC(=O)[C@H](C)O2 (stereo partly drawn) [Compound of example 1a, (3S, 6S, 9R)-6-isopropyl-3,9-dimethyl-1,4-dioxaspiro[4.5]decan-2-one]
flavor [1]: interesting minty note with refreshing effect

CC(C)[C@@H]1CC[C@@H](C)C[C@@]12OC(=O)[C@H](C)O2 [Compound of example 1b, (3S, 5R, 6S, 9R)-6-isopropyl-3,9-dimethyl-1,4-dioxaspiro[4.5]decan-2-one]
flavor [1]: more of the cooling type with a minty connotation
flavor ([1]; listed as (3S,5R,6S,9R) isomer): stronger and more lingering effect

CC1CCC(C(C)C)C2(C1)OC(=O)C(C)O2 (stereo not shown) [Compound (I), 6-isopropyl-3,9-dimethyl-1,4-dioxaspiro[4.5]decan-2-one]
flavor [1]: minty, fresh, piperita type
odor [1]: minty, menthone type odor
